Here are results for 20 molecules from patent US20230077362A1 (CORTEVA AGRISCIENCE LLC, priority 2019, published 2023).

Each structure is given as a SMILES string. Read-outs that look alike come from different tables or passages of the source.

Data set [1] deals with Beet Armyworm (Spodoptera exigua) ("BAW"), second instar larvae. In words: Bioassay on beet armyworm (BAW), 128-well diet tray assay. The format is in vivo. The settings on record: for pest or weed control at 50 µg/cm2: Spodoptera exigua; for BAW rating: C = not tested, D = no activity noticed. In short, it runs like this:
(§1)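 After sealing with a clear self-adhesive lid, the trays are incubated at 25° C. with 14 h light and 10 h dark for 5 to 7 days; mortality in each well is recorded as a percentage and averaged across the eight wells.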

Data set [2] deals with Cabbage Looper (Trichoplusia ni) ("CL"), second instar larvae. In words: Bioassay on cabbage looper (CL), 128-well diet tray assay. The class given is in vivo. The settings on record: for CL rating: C = not tested, D = no activity noticed. In a few lines:
as §1

The mark [3] stands for this setting: read-out: BAW (Biological Results, rating).
Where [4] appears, read: Trichoplusia ni, read-out: CL (Biological Results, rating).
Setting [5] is: Trichoplusia ni, read-out: CL rating.

In the case of `COc1ccc(C(C)C)c(N2C(=O)CS/C2=N\C(=O)Nc2ccc(-c3ncn(-c4ccc(OC(F)(F)F)cn4)n3)cc2C#N)c1` [Compound J268, (Z)-1-(2-Cyano-4-(1-(5-(trifluoromethoxy)pyridin-2-yl)-1H-1,2,4-triazol-3-yl)phenyl)-3-(3-(2-isopropyl-5-methoxyphenyl)-4-oxothiazolidin-2-ylidene)urea], the pest or weed control at 50 µg/cm2 in data set [1] (setting [3]) and in data set [2] (setting [4]) was 50 to 100% in each case.
As to `Cc1ccc(C(C)C)c(N2C(=O)CS/C2=N\C(=O)Nc2ccc(-c3ncn(-c4ccc(OC(F)(F)F)cn4)n3)cc2C(F)(F)F)c1` [Compound J260, (Z)-1-(3-(2-Isopropyl-5-methylphenyl)-4-oxothiazolidin-2-ylidene)-3-(4-(1-(5-(trifluoromethoxy)pyridin-2-yl)-1H-1,2,4-triazol-3-yl)-2-(trifluoromethyl)phenyl)urea], the pest or weed control at 50 µg/cm2 in data set [1] (setting [3]) and in data set [2] (setting [4]) was 50 to 100% in each case.
`Cc1cc(-c2ncn(-c3ccc(OC(F)(F)F)cc3)n2)cc(C)c1NC(=O)/N=C1\SCC(=O)N1c1cc(N(C)C)ccc1C(C)C` [Compound J96, (Z)-1-(2,6-Dimethyl-4-(1-(4-(trifluoromethoxy)phenyl)-1H-1,2,4-triazol-3-yl)phenyl)-3-(3-(5-(dimethylamino)-2-isopropylphenyl)-4-oxothiazolidin-2-ylidene)urea]: the pest or weed control at 50 µg/cm2 in data set [1] (setting [3]) and in data set [2] (setting [4]) was 50 to 100% throughout.
`Cc1ccc(OCCC(F)(F)F)c(N2C(=O)CS/C2=N\C(=O)Nc2ccc(-n3cnc(-c4ccc(OC(F)(F)F)cc4)c3)cc2Cl)c1` [Compound J790, (Z)-1-(2-Chloro-4-(4-(4-(trifluoromethoxy)phenyl)-1H-imidazol-1-yl)phenyl)-3-(3-(5-methyl-2-(3,3,3-trifluoropropoxy)phenyl)-4-oxothiazolidin-2-ylidene)urea]: the “BAW rating (% control or mortality class)” value in data set [1] (Table ABC, species BAW, 128-well diet tray assay, second instar larvae) is listed as “A (50-100)”. Besides, in data set [2] (Trichoplusia ni, Table ABC, species CL, 128-well diet tray assay, second instar larvae, read-out: CL rating (% control or mortality class)), the mortality at 50 µg/cm2 lay in the range of 50 to 100%.
On to `Cc1ccc(OCCC(F)(F)F)c(N2C(=O)CS/C2=N\C(=O)Nc2ccc(-c3cn(-c4ccc(S(F)(F)(F)(F)F)cc4)cn3)cc2F)c1` [Compound J597, (Z)-1-(2-Fluoro-4-(1-(4-(pentafluoro-λ^6-sulfaneyl)phenyl)-1H-imidazol-4-yl)phenyl)-3-(3-(5-methyl-2-(3,3,3-trifluoropropoxy)phenyl)-4-oxothiazolidin-2-ylidene)urea], for which the pest or weed control at 50 µg/cm2 in data set [1] (read-out: BAW rating) and in data set [2] (setting [5]) was 50 to 100% in each case.
Take `CC(C)c1cc(F)c(N(C)C)cc1N1C(=O)CS/C1=N\C(=O)Nc1ccc(-c2nnc(-c3ccc(OC(F)(F)F)cc3)s2)cc1F` [Compound J507, (Z)-1-(3-(5-(Dimethylamino)-4-fluoro-2-isopropylphenyl)-4-oxothiazolidin-2-ylidene)-3-(2-fluoro-4-(5-(4-(trifluoromethoxy)phenyl)-1,3,4-thiadiazol-2-yl)phenyl)urea]: the pest or weed control at 50 µg/cm2 in data set [1] (read-out: BAW rating) and in data set [2] (setting [5]) was 50 to 100% each time.
For the molecule `Cc1ccc(COCC(F)(F)F)c(N2C(=O)CS/C2=N\C(=O)Nc2ccc(-c3ncn(-c4ccc(OC(F)(F)F)cn4)n3)cc2C(F)(F)F)c1` [Compound J274, (Z)-1-(3-(5-Methyl-2-((2,2,2-trifluoroethoxy)methyl)phenyl)-4-oxothiazolidin-2-ylidene)-3-(4-(1-(5-(trifluoromethoxy)pyridin-2-yl)-1H-1,2,4-triazol-3-yl)-2-(trifluoromethyl)phenyl)urea], the pest or weed control at 50 µg/cm2 in data set [1] (setting [3]) and in data set [2] (setting [4]) was 50 to 100% each time.
As for `COc1ccc(-n2cnc(-c3ccc(NC(=O)/N=C4\SCC(=O)N4c4cc(C)ccc4COCC(F)F)c(F)c3)n2)cc1` [Compound J757, (Z)-1-(3-(2-((2,2-Difluoroethoxy)methyl)-5-methylphenyl)-4-oxothiazolidin-2-ylidene)-3-(2-fluoro-4-(1-(4-methoxyphenyl)-1H-1,2,4-triazol-3-yl)phenyl)urea], the pest or weed control at 50 µg/cm2 in data set [1] (read-out: BAW rating) and in data set [2] (setting [5]) was 50 to 100% throughout.
`Cc1ccc(COCC(F)(F)F)c(N2C(=O)CS/C2=N\C(=O)Nc2ccc(-c3ncn(-c4ccc(OC(F)(F)F)cc4)n3)cc2F)c1C` [Compound J678]: the BAW rating entry in data set [1] (Table ABC, species BAW) was “A (50-100)”. The CL rating result in data set [2] (Table ABC, species CL) is “A (50-100)”.
For `N#Cc1ccc(OCCC(F)(F)F)c(N2C(=O)CS/C2=N\C(=O)Nc2ccc(-n3cnc(-c4ccc(OC(F)(F)F)cc4)n3)cc2)c1` [Compound J406, (Z)-1-(3-(5-Cyano-2-(3,3,3-trifluoropropoxy)phenyl)-4-oxothiazolidin-2-ylidene)-3-(4-(3-(4-(trifluoromethoxy)phenyl)-1H-1,2,4-triazol-1-yl)phenyl)urea], the pest or weed control at 50 µg/cm2 in data set [1] (read-out: BAW rating) and in data set [2] (setting [5]) was 50 to 100% throughout.
As for `CCOC(C)c1ccc(C)cc1N1C(=O)CS/C1=N\C(=O)Nc1ccc(-c2ncn(-c3ccc(S(F)(F)(F)(F)F)cc3)n2)cc1C(F)(F)F` (stereo not shown) [Compound J631, (Z)-1-(3-(2-(1-Ethoxyethyl)-5-methylphenyl)-4-oxothiazolidin-2-ylidene)-3-(4-(1-(4-(pentafluoro-λ^6-sulfaneyl)phenyl)-1H-1,2,4-triazol-3-yl)-2-(trifluoromethyl)phenyl)urea], the pest or weed control at 50 µg/cm2 in data set [1] (read-out: BAW rating) and in data set [2] (setting [5]) was 50 to 100% throughout.
`Cc1ccc(C(C)C)c(N2C(=O)CS/C2=N\C(=O)Nc2ccc(-c3ncn(-c4ccc(OC(F)(F)F)cc4)n3)cc2Br)c1` [Compound J217, (Z)-1-(2-Bromo-4-(1-(4-(trifluoromethoxy)phenyl)-1H-1,2,4-triazol-3-yl)phenyl)-3-(3-(2-isopropyl-5-methylphenyl)-4-oxothiazolidin-2-ylidene)urea]: the pest or weed control at 50 µg/cm2 in data set [1] (setting [3]) and in data set [2] (setting [4]) was 50 to 100% each time.
Consider `CN(C)c1ccc(OCC(F)(F)F)c(N2C(=O)CS/C2=N\C(=O)Nc2ccc(-n3cnc(-c4ccc(C(F)(F)F)cc4)n3)cc2F)c1` [Compound J697, (Z)-1-(3-(5-(Dimethylamino)-2-(2,2,2-trifluoroethoxy)phenyl)-4-oxothiazolidin-2-ylidene)-3-(2-fluoro-4-(3-(4-(trifluoromethyl)phenyl)-1H-1,2,4-triazol-1-yl)phenyl)urea], for which the pest or weed control at 50 µg/cm2 in data set [1] (read-out: BAW rating) and in data set [2] (setting [5]) was 50 to 100% each time.
Consider `CC(C)c1cc(N(C)C)ccc1N1C(=O)CS/C1=N\C(=O)Nc1ccc(-c2ncn(-c3ccc(OC(F)(F)F)cc3)n2)cc1F` [Compound J112, (Z)-1-(3-(4-(Dimethylamino)-2-isopropylphenyl)-4-oxothiazolidin-2-ylidene)-3-(2-fluoro-4-(1-(4-(trifluoromethoxy)phenyl)-1H-1,2,4-triazol-3-yl)phenyl)urea], for which the pest or weed control at 50 µg/cm2 in data set [1] (setting [3]) and in data set [2] (setting [4]) was 50 to 100% each time.
With `Cc1ccc(COCC(F)(F)F)c(N2C(=O)C(Cl)(Cl)S/C2=N\C(=O)Nc2ccc(-c3ncn(-c4ccc(OC(F)(F)F)cc4)n3)cc2F)c1` [Compound J458, (Z)-1-(5,5-dichloro-3-(5-methyl-2-((2,2,2-trifluoroethoxy)methyl)phenyl)-4-oxothiazolidin-2-ylidene)-3-(2-fluoro-4-(1-(4-(trifluoromethoxy)phenyl)-1H-1,2,4-triazol-3-yl)phenyl)urea], the pest or weed control at 50 µg/cm2 in data set [1] (read-out: BAW rating) and in data set [2] (setting [5]) was 50 to 100% each time.
In the case of `Cc1ccc(OCCC(F)(F)F)c(N2C(=O)CS/C2=N\C(=O)Nc2ccc(-c3ncn(-c4ccc(S(F)(F)(F)(F)F)cc4)n3)cc2C(F)(F)F)c1` [Compound J629, (Z)-1-(3-(5-Methyl-2-(3,3,3-trifluoropropoxy)phenyl)-4-oxothiazolidin-2-ylidene)-3-(4-(1-(4-(pentafluoro-λ^6-sulfaneyl)phenyl)-1H-1,2,4-triazol-3-yl)-2-(trifluoromethyl)phenyl)urea], the pest or weed control at 50 µg/cm2 in data set [1] (read-out: BAW rating) and in data set [2] (setting [5]) was 50 to 100% each time.
With `COCOc1cc(-c2ncn(-c3ccc(OC(F)(F)F)cc3)n2)ccc1NC(=O)/N=C1\SCC(=O)N1c1cc(C)ccc1COCC(F)(F)F` [Compound J173, (Z)-1-(2-(Methoxymethoxy)-4-(1-(4-(trifluoromethoxy)phenyl)-1H-1,2,4-triazol-3-yl)phenyl)-3-(3-(5-methyl-2-((2,2,2-trifluoroethoxy)methyl)phenyl)-4-oxothiazolidin-2-ylidene)urea], the pest or weed control at 50 µg/cm2 in data set [1] (setting [3]) and in data set [2] (setting [4]) was 50 to 100% in each case.
On to `Cc1ccc(C(C)C)c(N2C(=O)CS/C2=N\C(=O)Nc2ncc(-c3ncn(-c4ccc(C(F)(F)F)cc4)n3)cc2C)c1` [Compound J664, (Z)-1-(3-(2-isopropyl-5-methylphenyl)-4-oxothiazolidin-2-ylidene)-3-(3-methyl-5-(1-(4-(trifluoromethyl)phenyl)-1H-1,2,4-triazol-3-yl)pyridin-2-yl)urea], for which the pest or weed control at 50 µg/cm2 in data set [1] (read-out: BAW rating) and in data set [2] (setting [5]) was 50 to 100% throughout.
As for `CCCc1ccc(C)cc1N1C(=O)CS/C1=N\C(=O)Nc1ccc(-c2nnc(-c3ccc(OC(F)(F)F)cc3)o2)cc1F` [Compound J608, (Z)-1-(2-Fluoro-4-(5-(4-(trifluoromethoxy)phenyl)-1,3,4-oxadiazol-2-yl)phenyl)-3-(3-(5-methyl-2-propylphenyl)-4-oxothiazolidin-2-ylidene)urea], the pest or weed control at 50 µg/cm2 in data set [1] (read-out: BAW rating) and in data set [2] (setting [5]) was 50 to 100% in each case.
As for `Cc1cc(-c2ncn(-c3ccc(OC(F)(F)F)cc3)n2)ccc1NC(=O)/N=C1\SCC(=O)N1c1c(COCC(F)(F)F)ccc(C)c1C` [Compound J679], the BAW rating entry in data set [1] (Table ABC, species BAW) is reported as “A (50-100)”. In addition, the CL rating entry in data set [2] (Table ABC, species CL) is “A (50-100)”.

One may read the mortality as the percentage killed.
